{"source": "patent US20080254152A1", "about": "“Methods for Reducing the Effects of Stress on Skin Condition” (priority 2003, published 2008)", "assay_type_in_all_cases": "cell-based", "key": {"[1]": {"tested_on": "IL-6 expression in neonatal-derived human dermal fibroblasts", "test": "IL-6 in neonatal-derived human dermal fibroblasts after chronic dexamethasone and PMA", "details": "GC-treated neonatal fibroblasts after PMA; T6 and T24; data not shown", "experimental": "The IL-6 protein concentration of each tissue culture supernatant was assayed using the QuantiGlo Q6000 Human IL-6 assay (R&D Systems) according to the manufacturer's instructions.\nSix IL-6 standards were prepared in calibrator diluent at concentrations ranging from 0 to 3000 pg/ml. 50 μl of assay diluent and 150 μl of tissue culture supernatant or standard was added to duplicate wells. The plate was incubated at room temperature for 2 hours on a horizontal orbital plate shaker before being washed four times with wash buffer. 200 μl of IL-6 conjugate was added to each well and the plate incubated at room temperature for 3 hours on a horizontal orbital plate shaker (˜500 rpm). The plate was washed as before. […] The relative light unit (RLU) of each well was determined using a luminometer set with 1 minute lag time, 1 second/well read time, summation mode and automatic gain on.\nA standard curve was plotted of mean RLU versus IL-6 concentration and the line of best fit calculated by regression analysis. […]\nIn this study, to understand better the effect of chronic stress on dermal matrix remodelling in the skin, we have therefore measured changes in markers of dermal matrix degradation (MMP-1) and dermal matrix synthesis (Procollagen I) in chronically glucocorticoid-treated primary human dermal fibroblasts, following acute stress with PMA. […]"}, "[2]": {"tested_on": "MMP-1 expression in human adult-derived dermal fibroblast cells", "test": "Active MMP-1 in adult-derived human dermal fibroblasts after chronic dexamethasone and PMA", "details": "for Suppression of MMP-1 synthesis vs control, untreated cells: chronic dexamethasone then 1 μM PMA, adult fibroblasts", "experimental": "(§1) In this study, to understand better the effect of chronic stress on dermal matrix remodelling in the skin, we have therefore measured changes in markers of dermal matrix degradation (MMP-1) and dermal matrix synthesis (Procollagen I) in chronically glucocorticoid-treated primary human dermal fibroblasts, following acute stress with PMA. The experimental approach is similar to that described in example 1 except that the cells tested are dermal fibroblasts and cells are assayed for expression of procollagen-1, MMP-1 and MMP-9 expression.\n(§2) Primary human dermal fibroblast cells were cultured and passaged in DMEM (Gibco) supplemented with 10% FBS (foetal bovine serum). Cells were routinely plated out in 6-well tissue culture dishes, at a seeding density of ˜5000 cells/cm^2 in 2 ml complete medium/well for 24 hours, and incubated at 37° C. in 5% CO2. Media was removed and cells grown in DMEM & 1% FBS, 24 hours prior to treatments.\n(§3) Pre-treatment and test solutions were prepared in DMEM containing low serum (1% FBS). […] Following this, the cells were oxidatively stressed for 24 hours with 1 μM PMA (Sigma P8139).\nMMP-1 and MMP-9 protein in each cell supernatant was estimated using the Human active MMP-1 and MMP-9 Fluorokine enzyme kit (R&D Systems F1M00 and F9M00, respectively), according to the manufacturer's instructions.\nSix MMP-1 and MMP-9 standards were prepared in calibrator diluent at concentrations ranging from 0.39 to 12.5 ng/ml and 0.25 to 16 ng/ml, respectively. 100 μl of assay diluent and 150 μl of tissue culture supernatant or standard was added to duplicate wells. The plate was incubated at room temperature for 3 hours on a horizontal orbital plate shaker before being washed four times with wash buffer. 200 μl of APMA was added to each well and the plate incubated at 37° C. for 2 hours in a humidified environment and protected from the light. The plate was washed as before. Each well received 200 μl of substrate solution and the plate incubated at 37° C. for 17-20 hours in a humidified environment and protected from the light. The relative fluorescence unit (RFU) of each well was determined using a fluorescence plate set with 1×20 mS integration time, plate speed ˜6; excitation wavelength set to 320 nm and emission wavelength set to 405 nm.\nA standard curve was plotted of mean RFU versus MMP-1 and MMP-9 concentration (respectively), and the line of best fit calculated by regression analysis. The unknown concentration of either active MMP-1 or MMP-9 protein in all of the samples was estimated from this."}, "[3]": {"tested_on": "procollagen-1 expression in human neonatal dermal fibroblast cells", "test": "Procollagen I C-peptide EIA in neonatal-derived human dermal fibroblasts after chronic dexamethasone and PMA", "details": "chronic dexamethasone then 1 μM PMA; T6; neonatal fibroblasts; FIG. 8", "experimental": "as §1, §2, §3\nCollagen I is synthesised as a precursor molecule, Procollagen I. The amount of free propeptide therefore, reflects stoichiometrically, the amount of collagen I synthesised. The Procollagen Type I C-peptide Enzyme Immunoassay (EIA) kit allows for the quantitative determination of Procollagen Type I C-peptide (PIP).\nEight PIP standards were prepared in sample diluent at concentrations ranging from 0 to 640 ng/ml. 100 μl of antibody-Peroxidase conjugate solution and 20 μl of cell lysate (1 μg protein) or standard was added to duplicate wells. The plate was sealed and incubated at 37° C. for 3 hours before being washed four times with 400 μl of PBS. Each well then received 100 μl of substrate solution and the plate incubated at room temperature, on the benchtop, for 15 minutes. After this period, 100 μl stop solution was added to each well and absorbance measured at 450 nm with a plate reader.\nA standard curve was plotted of mean absorbance versus PIP concentration and the line of best fit calculated by regression analysis. The unknown concentration of PIP in all the samples was estimated from this.\nThe same methods were used as described in Example 2, except that various test agents were added to the cells during the pre-treatment period."}}}
{"smiles": "C[C@@H]1C[C@H]2[C@@H]3CCC4=CC(=O)C=C[C@]4(C)[C@@]3(F)[C@@H](O)C[C@]2(C)[C@@]1(O)C(=O)CO", "note": "[Dexamethasone]", "values": [{"measurement": "Reduction in Interleukin-6 synthesis vs vehicle treated cells", "setting": "[1]", "result": "~80", "unit": "%"}, {"measurement": "Level of active MMP-1", "setting": "[2]; GC-treated adult fibroblasts", "result": "~25", "unit": "ng/mL"}, {"measurement": "Suppression of MMP-1 synthesis vs control, untreated cells", "setting": "[2]; T6", "result": "~85", "unit": "%"}, {"measurement": "Suppression of MMP-1 synthesis vs control, untreated cells", "setting": "[2]; T24", "result": 10, "unit": "%"}, {"measurement": "Suppression of MMP-1 synthesis vs control, untreated cells", "setting": "[2]; T48", "result": 80, "unit": "%"}, {"measurement": "Inhibition of Procollagen-1 synthesis vs control, untreated cells", "setting": "[3]", "result": "~50", "unit": "%"}]}
